39 compounds from patent publication US11028061B2, “Modulators of myocyte lipid accumulation and insulin resistance and methods of use thereof” (Sanford Burnham Prebys Medical Discovery Institute, priority 2015, dated 2021) can be followed below.

Molecules are shown by their SMILES. Some results are limits rather than exact numbers.

For this test, the system named is primary murine skeletal myocytes. Nature of the test: TAG accumulation in primary murine skeletal myocytes. Format: cell-based. The following applies: Mus musculus; primary murine skeletal myocytes; read-out: Activity Score (IC50), triacylglyceride (TAG) accumulation.

What is called IC50 is the midpoint of a concentration-inhibition curve. On to `COc1ccc(-c2csc(NC(=O)c3ccc(OCC(=O)N4CCOCC4)cc3)n2)c(Cl)c1` [Cpd. 54, N-(4-(2-chloro-4-methoxyphenyl)thiazol-2-yl)-4-(2-morpholino-2-oxoethoxy)benzamide], for which the IC50 is below 1 µM.
For `COc1ccc(-c2cnc(NC(=O)c3ccc(OCC(=O)N4CCOCC4)c(OC)c3)s2)cc1` [compound 80, 3-methoxy-N-(5-(4-methoxyphenyl)thiazol-2-yl)-4-(2-morpholino-2-oxoethoxy)benzamide], the IC50 was above 10 µM.
`COc1ccc(-c2csc(NC(=O)c3ccc(OCC(N)=O)cc3)n2)c(Cl)c1` [Cpd. 57, 4-(2-amino-2-oxoethoxy)-N-(4-(2-chloro-4-methoxyphenyl)thiazol-2-yl)benzamide]: the IC50 lay within 1 to 10 µM.
Take `CNC(=O)CNc1ccc(C(=O)Nc2nc(-c3ccc(OC)cc3Cl)cs2)cc1` [compound 71, N-(4-(2-chloro-4-methoxyphenyl)thiazol-2-yl)-4-((2-(methylamino)-2-oxoethyl)amino)benzamide]: the IC50 is below 1 µM.
The value for `COc1cc(C(=O)Nc2nc(-c3ccc(N4CCCC4)cc3)cs2)ccc1OCC(=O)N1CCOCC1` [Cpd. 34, 3-methoxy-4-(2-morpholino-2-oxoethoxy)-N-(4-(4-(pyrrolidin-1-yl)phenyl)thiazol-2-yl)benzamide] was below 1 µM; that for `COc1cc(C(=O)Nc2nc(-c3ccc(Cl)c(Cl)c3)cs2)ccc1O` [Cpd. 5, N-(4-(3,4-dichlorophenyl)thiazol-2-yl)-4-hydroxy-3-methoxybenzamide] was 1 to 10 µM; that for `COc1ccc(-c2csc(NC(=O)c3ccc(OCC(=O)N4CCCCC4)c(OC)c3)n2)cc1` [Cpd. 8, 3-methoxy-N-(4-(4-methoxyphenyl)thiazol-2-yl)-4-(2-oxo-2-(piperidin-1-yl)ethoxy)benzamide] was 1 to 10 µM.
With `COc1ccc(-c2csc(NC(=O)c3ccc(OCC(=O)NC4CCC4)c(OC)c3)n2)cc1` [Cpd. 22, 4-(2-(cyclobutylamino)-2-oxoethoxy)-3-methoxy-N-(4-(4-methoxyphenyl)thiazol-2-yl)benzamide] the figure was below 1 µM.
Regarding `COc1cc(C(=O)Nc2nc(-c3ccc(C#N)cc3)cs2)ccc1O` [Cpd. 6, N-(4-(4-cyanophenyl)thiazol-2-yl)-4-hydroxy-3-methoxybenzamide], the IC50 fell in the range of 1 to 10 µM.
`COc1ccc(-c2csc(NC(=O)c3ccc(OCC(=O)N4CCOCC4)cc3)n2)c(F)c1` [Cpd. 56, N-(4-(2-fluoro-4-methoxyphenyl)thiazol-2-yl)-4-(2-morpholino-2-oxoethoxy)benzamide]: the IC50 was below 1 µM.
The value for `CNC(=O)CNc1ccc(C(=O)Nc2nc(-c3ccc(OC)cc3)cs2)cc1` [compound 67, N-(4-(4-methoxyphenyl)thiazol-2-yl)-4-((2-(methylamino)-2-oxoethyl)amino)benzamide] was below 1 µM; that for `COc1ccc(-c2csc(NC(=O)c3cccc(OCC(=O)N4CCOCC4)c3)n2)cc1` [Cpd. 94, N-(4-(4-methoxyphenyl)thiazol-2-yl)-3-(2-morpholino-2-oxoethoxy)benzamide] was 1 to 10 µM; that for `COc1ccc(-c2csc(NC(=O)c3ccc(OCC(=O)N4CCOCC4)nc3)n2)cc1` [Cpd. 93, N-(4-(4-methoxyphenyl)thiazol-2-yl)-6-(2-morpholino-2-oxoethoxy)nicotinamide] was above 10 µM.
With `COc1cccc(-c2csc(NC(=O)c3ccc(OCC(=O)N4CCOCC4)c(OC)c3)n2)c1` [Cpd. 35, 3-methoxy-N-(4-(3-methoxyphenyl)thiazol-2-yl)-4-(2-morpholino-2-oxoethoxy)benzamide] the figure was 1 to 10 µM.
With `COc1cc(C(=O)Nc2nc(-c3ccc(Cl)cc3)cs2)ccc1OCC(=O)N1CCOCC1` [Cpd. 31, N-(4-(4-chlorophenyl)thiazol-2-yl)-3-methoxy-4-(2-morpholino-2-oxoethoxy)benzamide], the IC50 is below 1 µM.
The value for `COc1ccc(-c2csc(NC(=O)c3ccc(OCC(=O)N4CCN(S(C)(=O)=O)CC4)c(OC)c3)n2)cc1` [Cpd. 13, 3-methoxy-N-(4-(4-methoxyphenyl)thiazol-2-yl)-4-(2-(4-(methylsulfonyl)piperazin-1-yl)-2-oxoethoxy)benzamide] was above 10 µM; that for `CCNC(=O)COc1ccc(C(=O)Nc2nc(-c3ccc(OC)cc3Cl)cs2)cc1` [Cpd. 59, N-(4-(2-chloro-4-methoxyphenyl)thiazol-2-yl)-4-(2-(ethylamino)-2-oxoethoxy)benzamide] was below 1 µM; that for `COc1ccc(-c2csc(NC(=O)CCC(=O)N3CCOc4ccccc43)n2)cc1` [Cpd. 81, 4-(2,3-dihydro-4H-benzo[b][1,4]oxazin-4-yl)-N-(4-(4-methoxyphenyl)thiazol-2-yl)-4-oxobutanamide] was below 1 µM.
Consider `COc1ccc(-c2csc(NC(=O)c3ccc(NCC(=O)N4CCOCC4)c(OC)c3)n2)cc1` [Cpd. 75, 3-methoxy-N-(4-(4-methoxyphenyl)thiazol-2-yl)-4-((2-morpholino-2-oxoethyl)amino)benzamide], for which the 50% inhibitory concentration (IC50) is below 1 µM.
Consider `COc1ccc(-c2csc(NC(=O)c3ccc(OCC(=O)N4CCN(C)CC4)c(OC)c3)n2)cc1` [Cpd. 9, 3-methoxy-N-(4-(4-methoxyphenyl)thiazol-2-yl)-4-(2-(4-methylpiperazin-1-yl)-2-oxoethoxy)benzamide], for which the IC50 was below 1 µM.
Consider `COc1ccc(-c2csc(NC(=O)c3ccc(OCC(=O)NCC4CC4)c(OC)c3)n2)cc1` [Cpd. 10, 4-(2-((cyclopropylmethyl)amino)-2-oxoethoxy)-3-methoxy-N-(4-(4-methoxyphenyl)thiazol-2-yl)benzamide], for which the IC50 fell in the range of 1 to 10 µM.
As for `COCCNC(=O)COc1ccc(C(=O)Nc2nc(-c3ccc(OC)cc3)cs2)cc1OC` [Cpd. 20, 3-methoxy-4-(2-((2-methoxyethyl)amino)-2-oxoethoxy)-N-(4-(4-methoxyphenyl)thiazol-2-yl)benzamide], the IC50 was in the range of 1 to 10 µM.
With `COc1ccc(-c2csc(NC(=O)c3ccc(OCC(=O)NCc4ccccc4)c(OC)c3)n2)cc1` [Cpd. 23, 4-(2-(benzylamino)-2-oxoethoxy)-3-methoxy-N-(4-(4-methoxyphenyl)thiazol-2-yl)benzamide] the figure was 1 to 10 µM; with `COc1ccc(-c2csc(NC(=O)c3ccc(OCC(=O)N4CCOCC4)cc3)n2)cc1` [Cpd. 41, N-(4-(4-methoxyphenyl)thiazol-2-yl)-4-(2-morpholino-2-oxoethoxy)benzamide], below 1 µM.
Turning to `COc1ccc(-c2csc(NC(=O)c3ccc(OCC(=O)N(C)C)cc3)n2)c(Cl)c1` [Cpd. 60, N-(4-(2-chloro-4-methoxyphenyl)thiazol-2-yl)-4-(2-(dimethylamino)-2-oxoethoxy)benzamide], the IC50 was below 1 µM.
The value for `COc1cc(C(=O)Nc2nc(-c3ccccc3)cs2)ccc1O` [Cpd. 2, 4-hydroxy-3-methoxy-N-(4-phenylthiazol-2-yl)benzamide] was above 10 µM.
The value for `CNC(=O)COc1ccc(C(=O)Nc2nc(-c3ccc(OC)cc3)cs2)cc1OC` [Cpd. 18, 3-methoxy-N-(4-(4-methoxyphenyl)thiazol-2-yl)-4-(2-(methylamino)-2-oxoethoxy)benzamide] was below 1 µM; that for `O=C(Nc1nc(-c2cccc(Cl)c2)cs1)c1ccc(OCC(=O)N2CCOCC2)cc1` [Cpd. 52, N-(4-(3-chlorophenyl)thiazol-2-yl)-4-(2-morpholino-2-oxoethoxy)benzamide] was below 1 µM.
With `COc1cc(C(=O)Nc2nc(-c3ccc(C)cc3)cs2)ccc1O` [Cpd. 3, 4-hydroxy-3-methoxy-N-(4-(p-tolyl)thiazol-2-yl)benzamide] the figure was above 10 µM; with `CC(C)Oc1ccc(-c2csc(NC(=O)c3ccc(OCC(=O)N4CCOCC4)cc3)n2)c(Cl)c1` [Cpd. 55, N-(4-(2-chloro-4-isopropoxyphenyl)thiazol-2-yl)-4-(2-morpholino-2-oxoethoxy)benzamide], below 1 µM; with `CCN(CCN(C)C)C(=O)COc1ccc(C(=O)Nc2nc(-c3ccc(OC)cc3)cs2)cc1OC` [Cpd. 15, 4-(2-((2-(dimethylamino)ethyl)(ethyl)amino)-2-oxoethoxy)-3-methoxy-N-(4-(4-methoxyphenyl)thiazol-2-yl)benzamide], above 10 µM.
Take `COc1ccc(-c2csc(NC(=O)c3ccc(OCCN4CCOCC4)c(OC)c3)n2)cc1` [Cpd. 90, 3-methoxy-N-(4-(4-methoxyphenyl)thiazol-2-yl)-4-(2-morpholinoethoxy)benzamide]: the IC50 lay within 1 to 10 µM.
As for `O=C(Nc1nc(-c2ccccc2F)cs1)c1ccc(OCC(=O)N2CCOCC2)cc1` [Cpd. 49, N-(4-(2-fluorophenyl)thiazol-2-yl)-4-(2-morpholino-2-oxoethoxy)benzamide], the IC50 is below 1 µM.
The value for `COCCNC(=O)CNc1ccc(C(=O)Nc2nc(-c3ccc(OC)cc3Cl)cs2)cc1` [compound 73, N-(4-(2-chloro-4-methoxyphenyl)thiazol-2-yl)-4-((2-((2-methoxyethyl)amino)-2-oxoethyl)amino)benzamide] was below 1 µM; that for `O=C(Nc1nc(-c2ccc(F)cc2)cs1)c1ccc(OCC(=O)N2CCOCC2)cc1` [Cpd. 46, N-(4-(4-fluorophenyl)thiazol-2-yl)-4-(2-morpholino-2-oxoethoxy)benzamide] was below 1 µM.
In the case of `COc1ccc(-c2csc(NC(=O)c3ccc(O)c(OC)c3)n2)cc1` [Cpd. 1, 4-hydroxy-3-methoxy-N-(4-(4-methoxyphenyl)thiazol-2-yl)benzamide], the IC50 is above 10 µM.
With `COc1ccc(-c2csc(NC(=O)c3ccc(NCC(=O)N4CCOCC4)cc3)n2)c(Cl)c1` [compound 70, N-(4-(2-chloro-4-methoxyphenyl)thiazol-2-yl)-4-((2-morpholino-2-oxoethyl)amino)benzamide] the figure was below 1 µM; with `COc1ccccc1-c1csc(NC(=O)c2ccc(OCC(=O)N3CCOCC3)cc2)n1` [Cpd. 50, N-(4-(2-methoxyphenyl)thiazol-2-yl)-4-(2-morpholino-2-oxoethoxy)benzamide], below 1 µM.
The value for `COc1cc(C(=O)Nc2nc(-c3ccc(Cl)c(Cl)c3)cs2)ccc1OCC(=O)N1CCOCC1` [Cpd. 37, N-(4-(3,4-dichlorophenyl)thiazol-2-yl)-3-methoxy-4-(2-morpholino-2-oxoethoxy)benzamide] was below 1 µM.
